Reference: the NIST ThermoML archive (doi:10.1016/j.tca.2016.07.019)
± gives the expanded uncertainty stated by the source.

Assay: wn = mass fraction of the nth substance listed
Settings: 100 kPa, Liquid

O=C([O-])[C@@H]1CCCN1.[K+] [potassium L-prolinate] + O
mass density [kg/m3]
Settings | 293.15 K | 303.15 K | 313.15 K | 323.15 K
w1 = 0.01 | 1007.1 ± 2.3 | 1004.3 ± 2.4 | 1001.6 ± 2.5 | 997.9 ± 2.6
w1 = 0.04 | 1023.4 ± 2.3 | 1019.6 ± 2.4 | 1016.1 ± 2.5 | 1009.5 ± 2.7
w1 = 0.1 | 1047.2 ± 2.4 | 1042.8 ± 2.5 | 1037.9 ± 2.6 | 1026.7 ± 2.8
